Results: patent US20230265065A1 (WEST VIRGINIA UNIVERSITY BOARD OF GOVERNORS ON BEHALF OF …, priority 2020, published 2023)
Entries after “also recorded” stand apart in the source; their conditions may differ.

What was measured:
LAR [1] = target: T1, LAR (Homo sapiens, UniProt P10586); assay: Standard phosphatase assay (DiFMUP) with LAR, pH 6.5, 22° C.
T1 sequence (P10586 1352-1607): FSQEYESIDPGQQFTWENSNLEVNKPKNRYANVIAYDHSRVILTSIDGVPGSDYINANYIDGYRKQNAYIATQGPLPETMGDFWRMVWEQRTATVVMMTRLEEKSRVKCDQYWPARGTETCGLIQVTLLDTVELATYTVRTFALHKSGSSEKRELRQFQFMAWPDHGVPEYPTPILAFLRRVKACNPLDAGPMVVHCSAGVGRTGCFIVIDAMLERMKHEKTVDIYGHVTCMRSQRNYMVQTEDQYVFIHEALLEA
Protocol: Enzyme activity assays are performed in black 96-well plates containing a total volume of 100 μL in each well. […] Prior to each assay, the enzyme is activated by incubating in Bis-Tris buffer (50 mM Bis-Tris pH 6.5, 100 mM NaCl, 0.01% Brij 35, 1 mM EDTA) with 5 μL of 100 mM TCEP on ice for 30 min. Buffer, enzyme, and either a DMSO control or the compound of interest are added to each well of the 96-well plate and incubated for 30 min at room temperature. After this 30-min preincubation period, the substrate DiFMUP is added to initiate the reaction. The observed fluorescence resulting from the hydrolysis of DiFMUP is measured every 60 s for 30 min in a SpectraMax M5 plate reader with excitation and emission wavelengths of 350 and 455 nm, respectively.
Assays to investigate time-dependent inhibition are performed as described in the initial inhibitory screen assays section with slight modifications. Buffer and enzyme are initially added to each well, followed by sequential addition of inhibitor starting from the longest incubation time to the shortest.
Assays to determine kobs values were performed as described in the Initial inhibitory screen assays section above with slight modification. Buffer, inhibitor and DMSO were added to each well as appropriate. Enzyme was then added to each well and allowed to incubate for the desired time, followed by addition of DiFMUP to initiate the assay.

PTPRδ [2] = target: T2, PTPRδ (Homo sapiens, UniProt P23468); assay: Preliminary LAR-PTP inhibition assay at pH 8; type: biochemical; conditions: pH 8, 100 μM compound, 30 min preincubation
T2 sequence (P23468 1357-1612): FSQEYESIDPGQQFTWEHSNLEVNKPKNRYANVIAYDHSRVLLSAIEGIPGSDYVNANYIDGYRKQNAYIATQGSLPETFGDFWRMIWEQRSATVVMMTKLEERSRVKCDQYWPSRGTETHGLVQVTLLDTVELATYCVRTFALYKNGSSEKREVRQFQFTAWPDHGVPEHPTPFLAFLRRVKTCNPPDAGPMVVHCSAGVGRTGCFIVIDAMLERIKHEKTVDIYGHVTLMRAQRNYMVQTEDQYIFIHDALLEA
Protocol: The illudalogs of this invention show inhibitory activity against LAR-PTPs in preliminary assays at pH 6.5 and pH 8 (FIG. 9). In all assays, 100 μM of compound was incubated with enzyme for 30 min prior to the assay. […] This apparent pH-dependence is consistent with the postulated two-stage binding mechanism and will be investigated further. There is some variation in potency and selectivity across the analogues, although these preliminary assays are not precise enough to support quantitative conclusions.

PTPRδ [3] = target: T2, PTPRδ; assay: PTP panel inhibition, PTPRδ; type: biochemical; design: We maintain a library of PTP catalytic domains
[4] = tested on: LAR-PTP subfamily (LAR, PTPRσ, and PTPR^δ); assay: PTP panel screen, LAR-PTP subfamily; type: biochemical, human; conditions: panel also with PTP1B, SHP2, and CD45
Protocol: (§1) We screen illudalogs against a panel of PTPs including PTPRD, as illustrated in FIG. 16. […] Typical experimental conditions are 5-10 nM enzyme, 1-10 μM DiFMUP, and 250 nM inhibitor at 37° C.

SHP2 = target: T3, SHP2 (Homo sapiens, UniProt Q06124); assay: PTP panel screen, SHP2; type: biochemical; conditions: 250 nM
T3 construct: We maintain a library of PTP catalytic domains
T3 sequence (Q06124 247-517): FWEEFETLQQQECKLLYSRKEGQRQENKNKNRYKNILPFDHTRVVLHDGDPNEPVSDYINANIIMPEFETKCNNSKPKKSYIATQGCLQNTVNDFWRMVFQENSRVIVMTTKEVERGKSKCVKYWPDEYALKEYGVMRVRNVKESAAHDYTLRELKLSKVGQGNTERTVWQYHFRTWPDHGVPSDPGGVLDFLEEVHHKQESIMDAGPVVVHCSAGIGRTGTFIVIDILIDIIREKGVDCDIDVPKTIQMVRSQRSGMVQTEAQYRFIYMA
Protocol: as §1

PTPRD [5] = target: T4, PTPRD (Homo sapiens, UniProt P23468); assay: PTPRD inhibitor screen and IC50 at pH 7.5 and 37° C.; type: biochemical; conditions: 1 μM
T4 construct: We maintain a library of PTP catalytic domains
T4 sequence (P23468 1357-1612): T2 sequence (P23468 1357-1612)

PTPRD [6] = target: T4, PTPRD; assay: as above; type: biochemical; conditions: for PTPRD inhibition in preliminary screening assays: 1 μM and 250 nM; for IC50: pH 7.5 and 37° C.
LAR [7] = target: T1, LAR; assay: Reversibility of LAR inhibition by dialysis; type: biochemical; design: We maintain a library of PTP catalytic domains; conditions: preliminary experiments
CD45 = target: T5, CD45 (Homo sapiens, UniProt P08575); assay: PTP panel inhibition, CD45; type: biochemical
T5 construct: We maintain a library of PTP catalytic domains
T5 sequence (P08575 653-912): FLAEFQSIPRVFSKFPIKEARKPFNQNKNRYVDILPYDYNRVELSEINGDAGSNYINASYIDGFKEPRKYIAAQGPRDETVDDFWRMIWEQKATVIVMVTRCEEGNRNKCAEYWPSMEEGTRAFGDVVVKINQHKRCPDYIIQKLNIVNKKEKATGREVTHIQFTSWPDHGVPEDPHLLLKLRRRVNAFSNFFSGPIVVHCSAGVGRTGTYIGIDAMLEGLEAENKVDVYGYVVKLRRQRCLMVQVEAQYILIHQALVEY

[8] = Storage stability as pure substance or in DMSO; type: physicochemical; conditions: room temperature for six months
Description: As discussed above, our new synthetic approach focuses on convergent benzannulation, followed by conversion to the ortho-formyl hydroxy-lactone pharmacophore (FIG. 1). […] LiAlH4, then 6M HCl, ca. 40-70% yields of IAn compounds, which generally precipitate from aqueous acid as white crystalline solids. Intermediates 5 can be isolated for derivatization prior to acidic hydrolysis or advanced directly to the IAn compounds. Optimization is proposed and in progress. Currently, IA1 is produced in ca. 27% yield over 4 steps from 3. We have prepared >35 g of ester 2; ≥100 mg of IA1 and IA3; and ≥10 mg each of the other illudalog compounds of this invention. […] For IA1, we access β-keto amide 1a in two steps from known enal 3.^61 Other β-keto amides 1 provide parallel access to diverse illudalog cores (e.g., 1b→IA3, FIG. 1, bottom). We prepare β-keto ester 2^62 on multigram-scale using CDI-mediated decarboxylative coupling;^63 we have >35 g of 2 in stock. β-Keto ester 2 is the common building block for illudalogs prepared thus far; it comprises functional precursors to the hydroxy-lactone. The benzannulation is adapted from a known naphthol annulation.^64 The final reduction and hydrolysis sequence can be executed as a one-pot operation or with isolation of intermediate 5. Presumably, the deprotonated phenol directs reduction of the ortho-amide over the para-ester. […]

For `COc1c(C=O)c2c(c3c1CC(C)(C)C3)C(=O)OC(O)C2` (stereo not drawn) [IA1-6OMe], the “selectivity for LAR compared to other PTPs” value (LAR [1]; 100 μM inhibitor, pH 6.5, 22 degrees Centigrade) was “more selective for LAR”, the “inhibitory activity in standard phosphatase assays” value (LAR [1]; LAR, standard assays) was “inhibit” and the “initial thermodynamic binding affinity K1” value (LAR [1]; LAR, standard assays) was “too weak”. The “kinetic covalent ligation rate kinact” value (LAR [1]; LAR, standard assays) was “too fast”, the IC50 (LAR [1]; read-out: IC50 (LAR), standard assays, pH 6.5 and 22° C.) was 55000 ± 6000 nM and the “potency and selectivity for PTPR^δ over other LAR-PTPs” value (PTPRδ [2]) was “potent and selective for PTPR^δ over LAR and PTPR^δ”. The “inhibition of PTPRδ activity” value (PTPRδ [3]) was “inhibit”.
For `CC1(C)CCc2c(c(O)c(C=O)c3c2C(=O)OC(O)C3)C1` (stereo not drawn) [IA2-8Me2], the “potency and selectivity for the LAR subfamily” value ([4]; listed as 15) was “most potent and is selective for the LAR subfamily” and the inhibition at 0.25 µM (SHP2) was greater than 50%.
For `CC1(C)CCc2c(O)c(C=O)c3c(c2C1)C(=O)OC(O)C3` (stereo not drawn) [IA2-9Me2], the “potency and selectivity for the LAR subfamily” value ([4]; listed as 16) was “different selectivity profile within the LAR subfamily”.
With `CCOc1c(C=O)c2c(c3ccccc13)C(=O)OC(O)C2` (stereo not drawn) [IA3-6OEt] the “PTPRD inhibitory activity on rescreening” value (PTPRD [5]) was “lower inhibitory activity”.
For `COc1c(C=O)c2c(c3ccccc13)C(=O)OC(O)C2` (stereo not drawn) [IA3-6OMe], the “PTPRD inhibitory activity on rescreening” value (PTPRD [5]) was “lower inhibitory activity”.
In the case of `O=Cc1c2c(c3ccc(Br)cc3c1O)C(=O)OC(O)C2` (stereo not drawn) [IA3-8Br], the “PTPRD inhibition in preliminary screening assays” value (PTPRD [6]) is reported as “potent PTPRD inhibitors”.
With `C#Cc1ccc2c3c(c(C=O)c(O)c2c1)CC(O)OC3=O` (stereo not drawn) [IA3-8C2H] the “PTPRD inhibition in preliminary screening assays” value (PTPRD [6]) was “potent PTPRD inhibitors”.
Compound `O=Cc1c2c(c3cc(F)c(F)cc3c1O)C(=O)OC(O)C2` (stereo not drawn) [IA3-89F] has an IC50 (PTPRD [6]) of 51 ± 5 nM.
For `CC1(C)Cc2c(O)c(C=O)c3c(c2C1)C(=O)OC(O)C3` (stereo not drawn) [illudalic acid, reference compound], the “recovery of enzyme activity by dialysis” value (LAR [7]) was “enzyme activity cannot be recovered by dialysis”, the “inhibition of CD45 activity” value (CD45) was “inhibited” and the “inhibitory activity in standard phosphatase assays” value (LAR [1]; LAR, standard assays) was “active; also recorded: inhibit”. For the same compound, the “inhibition of PTPRδ activity” value (PTPRδ [3]) was “inhibit”, the IC50 (PTPRD [6]) was 90 ± 14 nM and the “stability of NMR sample in DMSO” value [8] was “unchanged”.
